Consider 2 compounds from PMC9024805, “Non-Effective Improvement of Absorption for Some Nanoparticle Formulations Explained by Permeability under Non-Sink Conditions” (Pharmaceutics, 2022).

On the set-up of series [1]: method as in PMID 33801447. As to conditions: previous study ref 25; cited from earlier work.
Series [2] is described as follows: Solubility from concentrations in the donor chambers. As to conditions: pH 6.5, 37 °C.
Protocol: At 0, 30, 60, 120, 240 and 360 min, 100 μL of the acceptor chamber solution was withdrawn and diluted 2-fold. […] To measure the exact concentration in the donor chamber containing the nanosuspensions, the filtration method was applied according to a previous report [32]. Then, 100 μL of the filtered solution was diluted 2-fold. The sample concentration was determined by ultra-high-performance liquid chromatography (UHPLC).
Series [3] in a line: Permeability under sink conditions (previous study / calculated for Figure 11). Conditions: not told, given in Figure 11. Type of series: in vitro ADME. The text has this:
To assess the impact of permeability under non-sink conditions, we compared it with that under sink conditions.

On the set-up of series [4]: method as in PMID 17694546. Conditions: cited from earlier work.

Take `COC1=CC(=O)C[C@@H](C)[C@]12Oc1c(Cl)c(OC)cc(OC)c1C2=O` [griseofulvin]: in series [1], the “Papp under sink conditions” value is 247 ×10⁻⁶ cm/s. For the same compound, the “Effect of nanonization / particle size on solubility” value in series [2] is given as “not improved by nanonization”. Moreover, the apparent permeability (Papp) (as a rule, a coefficient for how fast a substance crosses the barrier) in series [3] is 250 ×10⁻⁶ cm/s.

For the compound `CC(=O)[C@H]1CC[C@H]2[C@@H]3CCC4=CC(=O)CC[C@]4(C)[C@H]3CC[C@]12C` [progesterone], the “Papp using PAMPA relative to that of griseofulvin” value in series [4] is 2–3 times.
